In data set [1] the test system is U3013MG GSCs injected into brain ventricle. The data set is described as follows: Zebrafish xenograft in vivo efficacy assay. On the procedure:
A xenotransplantation model for GBM in zebrafish was developed to test the capacity of the 17 hits to prevent tumor formation in vivo. Three thousand U3013MG GSCs labeled with cell tracker red were injected intracranially into the ventricle of 48-52 hpf larvae. Each of the 17 hits were administered to the egg water at the lowest effective in vitro cytotoxic concentration identified and tumor development assessed 10 days later. This assay allowed rapid evaluation of the compounds in an in vivo setup, features such as the acute/chronic toxicity effect of the compounds on zebrafish and the transplanted cells, transplanted cell proliferation and migration of cells into brain parenchyma, compounds penetrance into the zebrafish tissue were all parallely evaluated. […] Cardiovascular toxicity was assessed using a recently established model based on frequency spectral analysis of heart beating in ex-vivo adult zebrafish hearts (Kitambi et al., (2012) BMC Physiol. 12, 3).
The zebrafish xenografts glioblastoma model was developed for quantitative analyses on the efficacy of S10 to inhibit tumor development and for quantification of infiltration of cells in the host brain. […] The size of the tumor was determined by quantification of the area, fluorescence level and infiltration by measuring the average distance of infiltrating cells from the original tumor mass. […]

The subject of a further data set is zebrafish embryos. The note with it: in vivo. The protocol:
To assess the selectivity of compounds on mixed cultures consisting of GSC with other cell types, a hanging drop-based mixed culture procedure was developed. U3013MG GSCs were labeled with a cell tracker red and fibroblasts with a cell tracker green fluorescent dye for co-cultures to assess selective effects on glioma cells (glioblastoma) in a mixed culture setting. Cells organized in layers in the absence of compounds.
A zebrafish model was used to assess the developmental and cardiac toxicity of advanced hits from the screen. For the developmental toxicity experiment, zebrafish embryos at one-cell stage were distributed into a 96 well plate (3 embryos per well in 200 μl of egg water) and exposed to DMSO as a control or various concentration of compounds. The egg water (with or without compound) was replaced every 6 hrs and the embryos were allowed to grow for three days. The embryos were monitored every day and allowed to grow for 5 days before the phenotype was recorded. For the cardiotoxicity assay, an ex vivo culture of adult hearts was performed according to our previously published procedure (Kitambi et al., (2012) BMC Physiol. 12, 3). Adult hearts from male zebrafish were exposed to compounds and the effect on the heart beat was recorded and analysed using developed methods (Kitambi et al., (2012) BMC Physiol. 12, 3).

The subject of the next data set is Caspase-3 and Caspase-7. Description: Caspase-3 and Caspase-7 enzymatic activity in GSC. Format: cell-based, human. The note with it: 5-30 μM, 2 to 600 minutes. On the procedure: A distinctive feature of apoptosis is the rapid loss of ATP associated with decoupling of the respiratory chain. Death of GSCs was therefore examined in the presence of the apoptosis inhibitor Q-VAD. […] However, Q-VAD only modestly rescued S10 treated cells from death at 3 and 7 hrs. […] Caspase-3 and Caspase-7 enzymatic activity was measured at 2, 15, 30, 60, 120, 120, 240, 360 and 600 minutes after addition of S10 at increasing concentrations from 5-30 μM. […] The rapid depletion of ATP by S10 led us to therefore examine the mitochondria. The accumulation of tetramethylrhodamine ethyl ester (TMRE) in mitochondria and […] is driven by their membrane potential. TMRE incorporation in mitochondria was largely unaffected by S10. […]
For measuring cell viability, cytotoxicity and apoptosis in GSC/fibroblast/mGlia cells were grown in 384-well microtiter plates using procedure described above. […] Cell viability, cytotoxcity and apoptosis were measured using CellTiter-Glo® Luminescent Cell Viability Assay (Promega), CytoTox-Glo Cytotoxicity Assay and […], according to manufacturer's instructions. […] Luminescence was measured using a Victor3 FA (Perkin Elmer) microtiterplate reader and the level of released Caspase 3/7 quantified relative to control using GraphPad Prism (v6.02) software.

With `OC(c1cc(-c2ccc(Cl)cc2)nc2ccccc12)C1CCCCN1` (racemic) [Compound S10, (2-(4-chlorophenyl)quinolin-4-yl)(piperidin-2-yl)methanol], the tumor growth result in data set [1] (15 μM applied to the aquarium water for 10 days) was “marked attenuation of tumor growth”. In data set [1] (lowest effective in vitro cytotoxic concentration in egg water, assessed 10 days later), the tumor size result is “markedly reduced tumor size”. Also, in the data set with zebrafish embryos, the “effect on zebrafish development” value is given as “did not exert any effect of zebrafish development”. In addition, in the data set on Caspase-3 and Caspase-7, the “caspase activity relative to DMSO control” value is reported as “no effect on caspase activity”.

Values taken from patent publication US20160214958A1, “COMPOUNDS AND USE FOR TREATING CANCER” (GLIONOVA AB, priority 2013, published 2016).
